The values that follow come from patent publication US12174172B2, “Method for evaluating the efficacy of a composition in reducing the effects of cancer therapeutics on skin” (Johnson & Johnson Consumer Inc., priority 2019, dated 2024).

“Also recorded” adds a separate entry of the source. Marks after values point to notes of the source that are not given here.

In series [1] the test system is desmoglein-1 (DSG1). The experiment in a line: 3D micro-epidermis model (EpiScreen): desmoglein-1 immunostaining. It counts as cell-based, human. The method, then:
To assess the effects of such therapy molecules on the epidermis, keratinocytes were grown in the presence of kinase inhibitors during 3 days with high calcium concentration to induce keratinocyte differentiation and generate a 3D-stratified differentiated epidermis. Drug impact on the epidermis development was assessed via different keratinocyte markers including: • Ki-67, an universally expressed protein among proliferating cells and absent in the quiescent cells; • Filaggrin, a filament-associated protein that binds to keratin fibers and is a marker of terminal differentiation; • Desmoglein-1, a component of desmosomes and differentiation marker expressed in all epidermal layer above the basal layer; and • Involucrin, an early differentiation marker expressed in the spinous and granular layers and a protein precursor of the epidermal cornified envelope.
Human epidermal keratinocytes cells (HPEKs) from a juvenile donor (CellnTec, Switzerland) are cultured in flasks in proliferation medium. Keratinocytes are seeded at passage 6 into EpiScreen™ (Abzena, Cambridge, UK) plates containing collagen 1 coated disc micropatterns (CYTOO, Grenoble, France). Four hours later, unattached cells are washed off and a high calcium medium is added to induce keratinocytes differentiation. The day after, keratinocytes are treated with screening compounds, and Trichostatin A is added at 0.3 μM as an internal positive control. After three days of treatment, micro-epidermises are fixed with a formalin solution 10% for 30 minutes, then permeabilized with 0.1% Triton. Several immunostainings are performed: actin (Acti-Stain 555, PHDH1, Cytoskeleton), nuclei (Hoechst, H3570, Invitrogen), and one biomarker of interest per well either anti-involucrin (HPA055211, Sigma), anti-filaggrin (HPA030189, Sigma) or anti-desmoglein-1 (HPA022128, Sigma). Antibodies are added overnight at 4° C. before staining with secondary antibody, anti-rabbit 488 (711-545-152, Jackson) for 2 hours at room temperature.
Images of each well are acquired with the Operetta HCS platform (Perkin Elmer, Waltham, MA, USA) using a ×10 objective in confocal mode in eight z-planes from 2 μm to 44 μm in steps of 6 μm in each of the 3 channels: actin, nuclei, and one biomarker of interest. The first step of the image analysis consists in detecting micro-epidermis structures on the first z-plane by segmenting the actin staining. Micro-epidermis structures are validated based on several area and roundness min and max criteria. Then, the area of each biomarker staining is measured inside the valid micro-epidermis masks through each z-plane. For all homogeneous biomarker staining, their intensity through the different planes is measured.
The actin network of each micro-epidermis is analyzed in each z-plane in order to determine the average 3D structure edges. The biomarker intensity is measured in each z-plane for each structure, and then averaged with the other results generated in the same well. Based on the data generated in the two previous steps, an average 3D reconstruction image is generated. It consists of a meshwork that delimits the structure edges, and a color scaled volume that corresponds to the biomarkers distribution and expression.
The effect of 8 oncology molecules, selected from first generation EGFRi and pan-kinase inhibitors which mostly target VEGFR and second and third generation therapies targeting main mutations relating to first generation treatment resistance, were assessed in vitro using a 3D micro-epidermis model. The drug incubation concentrations (3, 10, 30, 100 nM) were selected to reflect the clinically relevant (unbound) drug exposures (Table 2). The drug impact was assessed by analysis of tissue size and keratinocyte proliferation using Ki-67 staining and keratinocyte differentiation using filaggrin, desmoglein-1 and involucrin staining. […]

Series [2] has as its system caspase-3 activity in keratinocytes. As to the kind of experiment: Caspase-3 fluorometric assay (cell apoptosis). It counts as cell-based, human. As to conditions: 2.59 nM and 25.89 nM, 24 h (FIG. 5b). The source says:
The kit (biotium, Fremont, CA, USA) provides a homogenous assay system for fast and highly sensitive detection of caspase-3 activity by fluorescence in enzymatic reaction or mammalian cells. The fluorogenic substrate (Ac-DEVD) 2-R110 contains two DEVD (Asp-Glu-Val-Asp) tetrapeptides and is completely hydrolyzed by the enzyme in two successive steps. Cleavage of the first DEVD peptide results in the monopeptide Ac-DEVD-R110 intermediate, which has absorption and emission wavelengths similar to those of R110 (Ex/Em=496/520 nm) but has only about 10% of the fluorescence of the latter. Hydrolysis of the second DEVD peptide releases the dye R110, leading to a substantial fluorescence increase. Keratinocytes were plated at 15,000 cells per well in 100 μl of medium in a 96-well black microplate. They were allowed to attach and grow overnight in a 37° C., 5% CO2 incubator. They were then treated for 20 h with a 1:2 dilution series of staurosporine, a caspase 3 inducer. Imaging was performed on Perkin Elmer EnVision 2103 Multilabel Reader using an excitation wavelength of 490 nm and emission wavelength of 535 nm. Cells were incubated at room temperature for 15 min, protected from light. Results were obtained with 6 donors of keratinocytes in 2 experiments

For series [3] the following is noted: most frequent cutaneous adverse reaction reported by the FDA Adverse Event Reporting System; cited from earlier work.
The subject of series [4] is SkinEthic Reconstructed Human Epidermis (RHE). As to the kind of experiment: Skin barrier function: trans-epidermal water loss (TEWL) on reconstructed human epidermis. It counts as cell-based. As to conditions: day 7; SDS 0.5% topical; afatinib 100 nM in the media. The method, then: The effect of drugs on the skin barrier function was assessed by measuring trans-epidermal water loss (TEWL) rates on SkinEthicTM Reconstructed Human Epidermis (RHE) model (Episkin, Lyon, France) using Tewitro® TW 24 (Courage+Khazaka electronic GmbH, Köln, Germany). This instrument allows 24 simultaneous measurements on RHE. TEWL was analyzed at 33° C. in an incubator. […] Petrolatum, a highly hydrophobic hydrocarbon, water-repelling and insoluble in water was used to block water evaporation at the RHE surface (negative control). […] DMSO was used in the same proportion in the vehicle. SkinEthicTM RHE (Episkin, Lyon, France), is an in vitro reconstructed human epidermis from normal human keratinocytes cultured on an inert polycarbonate filter at the air-liquid interface, in a chemically defined medium. This model exists at different stages of maturity. This model is histologically similar to in vivo human epidermis. See […].com/SkinEthic%20RHE. The Tewitro® TW 24 is a device that measures water evaporation from cultured tissue sets (wells in a plate with medium) in up to 24 wells simultaneously. See https://www.courage-[…].

For series [5] the following is noted: cited from earlier work.

The Cmax is the highest concentration seen after dosing. For the compound `CN(C)C/C=C/C(=O)Nc1cc2c(Nc3ccc(F)c(Cl)c3)ncnc2cc1O[C@H]1CCOC1` [Afatinib], the “DSG 3 nM” value in series [1] (3 nM, supplementary data) is on record as 38%. In addition, the “DSG 30 nM” value in series [1] (30 nM, supplementary data) is 87%. In series [1] (Homo sapiens, 72 h, 10 nM, supplementary data, read-out: DSG 10 nM), the activation at 0.01 µM came out at 67%. Moreover, the DSG-1 expression result in series [1] (Table 1 summary) is “Increased”. Besides, the “desmoglein-1 expression” value in series [1] (concentration (afatinib 3, 10, 30 nM; pan-kinase inhibitors 100 nM)) is on record as “significantly increased; also recorded: increased in a dose-dependent manner”. The cell apoptosis entry in series [2] was “does not induce apoptosis; also recorded: did not show any effect; also recorded: not affected”. The “Major Skin Effect” value in series [3] is “Rash”. For the same compound, the “increase of the TEWL rate” value in series [4] was “no significant change”. Further, the Cmax in series [5] (maximal plasma concentration after a single daily-recommended dose, human) was 32 nM. Besides, the Unbound concentration in series [5] (unbound plasma concentration, identified or calculated from Cmax and unbound fraction) is reported as 1.6 nM. Besides, the Unbound fraction in series [5] (unbound to plasma protein) was 5%*.
